Source: PMC5365645, “Preclinical Pharmacokinetics and Pharmacodynamic Target of SCY-078, a First-in-Class Orally Active Antifungal Glucan Synthesis Inhibitor, in Murine Models of Disseminated Candidiasis” (Antimicrobial Agents and Chemotherapy, 2017)

Key:
[1] = in vivo; set-up: species or system female CD-1 mice; details: female, CD-1, mouse
Experimental: The pharmacokinetics and bioavailability of SCY-078 were evaluated in uninfected mouse, rat, and dog after p.o. and i.v. administration. The in vivo phases of the PK studies were performed at either […] (Waltham, MA) or MPI Research (Mattawan, MI) after an Institutional Animal Care and Use Committee (IACUC) review. […] and MPI Research are Association for Assessment and Accreditation of Laboratory Animal Care International (AAALAC)-approved facilities. […] The peak concentration (Cmax), the time to maximum concentration (Tmax), the half-life, and the AUC were determined from composite mean plasma concentration-time data for rodents and individual plasma concentration-time data for dogs. All doses and plasma concentrations of SCY-078 are presented as free base.

[2] = in vivo; set-up: species or system mice, rats, and dogs
Experimental: The pharmacokinetics and bioavailability of SCY-078 were evaluated in uninfected mouse, rat, and dog after p.o. and i.v. administration. The in vivo phases of the PK studies were performed at either […] (Waltham, MA) or MPI Research (Mattawan, MI) after an Institutional Animal Care and Use Committee (IACUC) review. […] and MPI Research are Association for Assessment and Accreditation of Laboratory Animal Care International (AAALAC)-approved facilities. […] The peak concentration (Cmax), the time to maximum concentration (Tmax), the half-life, and the AUC were determined from composite mean plasma concentration-time data for rodents and individual plasma concentration-time data for dogs. All doses and plasma concentrations of SCY-078 are presented as free base. […] Male and female Wistar Han rats (n = 3/sex/group/time point) weighing 0.329 to 0.398 kg (males) or 0.187 to 0.244 kg (females) received a single 5-mg/kg dose of SCY-078 as an i.v. injection in the lateral tail administered over 5 min or an oral dose of 20 mg/kg as described above. Blood specimens were collected from four animals/time point/group using a sparse sampling strategy via the sublingual vein at time intervals to 72 h postdosing and processed as described above. Treatment naive male and female beagle dogs (n = 3/sex/group/time point) weighing 8 to 12 kg (males) or 6 to 10 kg (females) were given a single 5-mg/kg dose of SCY-078 as an i.v. injection over 5 min or an oral dose of 20 mg/kg as described above. Blood specimens were collected from the jugular vein at various time intervals to 72 h postdosing and processed as described above.

[3] = female (mouse), both (rat, dog), CD-1 (mouse), Wistar Han (rat), beagle (dog), dog, po

With `CC(C)[C@@H](C)[C@@]1(C)CC[C@]2(C)[C@H]3CC[C@@H]4[C@@]5(COC[C@@]4(C)[C@@H](OC[C@](C)(N)C(C)(C)C)[C@H](n4ncnc4-c4ccncc4)C5)C3=CC[C@@]2(C)[C@@H]1C(=O)O` [SCY-078, (1S,4aR,6aS,7R,8R,10aR,10bR,12aR,14R,15R)-15-[[(2R)-2-amino-2,3,3-trimethylbutyl]oxy]-8-[(1R)-1,2-dimethylpropyl]-14-[5-(4-pyridinyl)-1H-1,2,4-triazol-1-yl]-1,6,6a,7,8,9,10,10a,10b,11,12,12a-dodecahydro-1,6a,8,10a-tetramethyl-4H-1,4a-propano-2H-phenanthro[1,2-c]pyran-7-carboxylic acid] as the molecule, how does the bioavailability ([1]; 6.25 mg/kg) read?
The bioavailability was > 41%.

What about the bioavailability ([1]; 12 mg/kg) of the same molecule?
Its bioavailability is > 51%.

And the “Dose normalized AUC0–∞ to a 1-mg/kg dose” value ([1]; iv)?
Its value is 1.4 µg·h/mL.

And the AUC(0-inf) ([1]; iv, 1 mg/kg)?
Its AUC(0-inf) is 1460 ng·h/mL.

And the Vd ss ([1]; iv, 1 mg/kg)?
The Vd ss was 5.3 L/kg.

And the clearance ([1]; iv, 1 mg/kg)?
Its clearance is 11.3 mL/min/kg.

What about the AUC(0-t) ([1]; iv, 1 mg/kg, AUC0–24) of the same molecule?
The AUC(0-t) was 1390 ng·h/mL.

What about the Vd ([1]; iv, 1 mg/kg, Vd ss) of the same molecule?
The Vd was 5.26 L/kg.

And the half-life ([1]; iv, 1 mg/kg, t1/2)?
The half-life was ~5.5 h.

What about the concentration at 4 h ([1]; po) of the same molecule?
The concentration at 4 h was 1490 ± 690 ng/mL.

What about the AUC(0-inf) ([1]; po, 6.25 mg/kg) of the same molecule?
Its AUC(0-inf) is 9560 ng·h/mL.

And the Cmax ([1]; po, 6.25 mg/kg)?
The Cmax was 640 ng/mL.

And the Tmax ([1]; po, 6.25 mg/kg)?
Its Tmax is 4 h.

And the concentration at 12 h ([1]; po, 6.25 mg/kg)?
The concentration at 12 h was 370 ± 60 ng/mL.

What about the AUC(0-t) ([1]; po, 6.25 mg/kg, AUC0–12) of the same molecule?
Its AUC(0-t) is 3110 ng·h/mL.

And the AUC(0-t) ([1]; po, 6.25 mg/kg, AUC0–24)?
The AUC(0-t) was 8360 ng·h/mL.

What about the Cmax ([1]; po, 6.25 mg/kg, Cmax) of the same molecule?
Its Cmax is 390 ng/mL.

What about the half-life ([1]; po, 6.25 mg/kg, t1/2) of the same molecule?
Its half-life is 7.8 h.

What about the “AUC0–12” value ([1]; po, 12 mg/kg) of the same molecule?
The value was 15100 ng·h/mL.

What about the “AUC0–24” value ([1]; po, 12 mg/kg) of the same molecule?
Its value is 22520 ng·h/mL.

And the AUC(0-inf) ([1]; po, 12 mg/kg)?
Its AUC(0-inf) is 28300 ng·h/mL.

And the Cmax ([1]; po, 12 mg/kg)?
Its Cmax is 1610 ng/mL.

What about the Tmax ([1]; po, 12 mg/kg) of the same molecule?
Its Tmax is 6 h.

What about the concentration at 12 h ([1]; po, 12 mg/kg) of the same molecule?
The concentration at 12 h was 850 ± 220 ng/mL.

What about the AUC(0-t) ([1]; po, 12 mg/kg, AUC0–12) of the same molecule?
The AUC(0-t) was 7580 ng·h/mL.

What about the AUC(0-t) ([1]; po, 12 mg/kg, AUC0–24) of the same molecule?
The AUC(0-t) was 22500 ng·h/mL.

What about the Cmax ([1]; po, 12 mg/kg, Cmax) of the same molecule?
The Cmax was 900 ng/mL.

And the half-life ([1]; po, 12 mg/kg, Half-life in plasma)?
The half-life was ~8.3 h.

What about the half-life ([1]; po, 12 mg/kg, t1/2) of the same molecule?
The half-life was 8.8 h.

And the “Accumulation factor for AUC” value ([1]; po, 7 days)?
Its value is ~2 fold.

And the “Accumulation factor for Cmax” value ([1]; po, 7 days)?
The value was ~2 fold.

And the Cmax ([2]; CD-1 (mouse), Wistar Han (rat), beagle (dog), dog, po)?
The Cmax was ~1000 ng/mL.

What about the half-life ([2]; both sexes, CD-1, Wistar Han, mouse, rat, po) of the same molecule?
The half-life was 7.8 to 9.1 h.

And the half-life ([2]; female (mouse), both (rat), CD-1 (mouse), Wistar Han (rat), iv)?
The half-life was 5.5 to 8.7 h.

What about the Vd ([2]; female (mouse), both (rat, dog), CD-1 (mouse), Wistar Han (rat), beagle (dog), dog, iv) of the same molecule?
The Vd was 4.7 to 5.3 L/kg.

What about the “Dose normalized AUC0–12 across species” value [2, 3] of the same molecule?
Its value is 0.5-0.8 μg/ml·h/mg/kg dose.

And the Tmax [2, 3]?
The Tmax was 4 to 6 h.
